Laboratory results reported in US20160263108A1, “NRF2 INHIBITORS AND COMPOSITIONS FOR TREATING MYCOBACTERIAL INFECTIONS” (THE HAMNER INSTITUTES, priority 2013, published 2016).
Structures can show the parent of a compound that is named as a salt. Where two headings read alike, the source gives them in different places.

Legend:
[1] = tested on: Nrf2-ARE activity; type: cell-based
[2] = tested on: Nrf2-ARE-dependent gene expression (HO1, GCLM, SRX); conditions: THP-1 cells, concentration-dependent
[3] = tested on: Nrf2-ARE activity in HepG2 cells; type: cell-based, human; conditions: for ARE-luciferase activity with Nrf2 activator: HepG2 cells treated with both drug and iAs3+ (FIG. 2A, FIG. 3); for inhibitory effect on ARE-luciferase activity: HepG2 cells, basal conditions (FIG. 2A, FIG. 3)
[4] = tested on: Nrf2-ARE activity in HaCaT cells; type: cell-based, human
[5] = tested on: Nrf2-ARE-dependent gene expression (Gclc, Nqo1, Ho1); experiment: RT-qPCR of ARE-dependent genes in 3T3-L1 preadipocytes; conditions: 10 mM
[6] = tested on: Nrf2-ARE-dependent gene expression (Ho1); experiment: RT-qPCR of ARE-dependent gene in HepG2 cells; conditions: concentration-dependent, basal (FIG. 2B)
[7] = tested on: Nrf2-ARE activity in 3T3-L1 preadipocytes; type: cell-based, mouse
[8] = iAs3+-treated or tBHQ-treated conditions

NNC(=O)c1ccco1 [2-Furoic hydrazide] was tested, and the “inhibitory effect on ARE-luciferase activity” value ([1]; basal conditions) was “concentration-dependent inhibitory effect” and the “inhibitory effect on ARE-luciferase activity” value [1, 8] was “concentration-dependent inhibitory effect”.
Nc1cnccn1 [Aminopyrazine] was tested, and the “inhibitory effect on ARE-luciferase activity” value ([1]; basal conditions) was “concentration-dependent inhibitory effect” and the “inhibitory effect on ARE-luciferase activity” value [1, 8] was “concentration-dependent inhibitory effect”.
For CC[C@@H](CO)NCCN[C@@H](CC)CO [Ethambutol dihydrochloride], the “inhibitory effect on ARE-luciferase activity” value ([1]; basal conditions) was “concentration-dependent inhibitory effect”.
In the case of CCc1cc(C(N)=S)ccn1 [Ethionamide], the “gene expression (mRNA) of Heme oxygenase (HO1)” value ([2]; basal (FIG. 4A)) is reported as “suppresses”, the “gene expression (mRNA) of GCLM” value ([2]; basal (FIG. 4B)) is reported as “suppresses” and the “gene expression (mRNA) of sulfiredoxin (SRX)” value ([2]; basal (FIG. 4C)) is reported as “suppresses”. The “ARE-luciferase activity with Nrf2 activator” value [3] was “substantial ARE-luciferase activity” and the “inhibitory effect on ARE-luciferase activity” value [3] was “concentration-dependent inhibitory effect”.
In the case of NNC(=O)c1ccncc1 [Isoniazid], the “Nrf2-ARE-inhibitory effect (ARE-luciferase)” value [4] is reported as “Nrf2-ARE-inhibitory effect of isoniazid was also observed”, the “gene expression of glutamate-cysteine ligase catalytic subunit (Gclc)” value ([5]; basal (FIG. 1B)) is reported as “suppresses” and the “gene expression of NAD(P)H dehydrogenase [quinone] 1 (Ngo1)” value ([5]; basal (FIG. 1C)) is reported as “suppresses”. The “gene expression of Heme oxygenase (Ho1)” value ([5]; basal (FIG. 1D)) was “suppresses”, the “gene expression of Heme oxygenase (Ho1)” value [6] was “suppresses” and the “ARE-luciferase activity with Nrf2 activator” value [3] was “substantial ARE-luciferase activity”. For the same molecule, the “inhibitory effect on ARE-luciferase activity” value [3] was “concentration-dependent inhibitory effect”, the “ARE-luciferase activity with Nrf2 activator” value ([7]; 3T3-L1 cells treated with both drug and iAs3+ (FIG. 1A)) was “substantial ARE-luciferase activity” and the “inhibitory effect on ARE-luciferase activity” value ([7]; 3T3-L1 cells, basal conditions, 1 mM to 50 mM (FIG. 1A)) was “concentration-dependent inhibitory effect”.
NNC(=O)Cc1ccccc1 [Phenylacetic hydrazide] was tested, and the “inhibitory effect on ARE-luciferase activity” value ([1]; basal conditions) was “concentration-dependent inhibitory effect” and the “inhibitory effect on ARE-luciferase activity” value [1, 8] was “concentration-dependent inhibitory effect”.
With NNc1ccccc1 [Phenylhydrazine] the “inhibitory effect on ARE-luciferase activity” value ([1]; basal conditions) was “concentration-dependent inhibitory effect” and the “inhibitory effect on ARE-luciferase activity” value [1, 8] was “concentration-dependent inhibitory effect”.
With NC(=O)c1cnccn1 [Pyrazinecarboxamide] the “inhibitory effect on ARE-luciferase activity” value ([1]; basal conditions) was “concentration-dependent inhibitory effect” and the “inhibitory effect on ARE-luciferase activity” value [1, 8] was “concentration-dependent inhibitory effect”.
In the case of C[C@@H]1CN(c2c(F)c(N)c3c(=O)c(C(=O)O)cn(C4CC4)c3c2F)C[C@H](C)N1 [Sparfloxacin], the “inhibitory effect on ARE-luciferase activity” value ([1]; basal conditions) is reported as “concentration-dependent inhibitory effect”.
Cc1ccc(C(=O)NN)cc1 [p-Toluic hydrazide] was tested, and the “inhibitory effect on ARE-luciferase activity” value ([1]; basal conditions) was “concentration-dependent inhibitory effect” and the “inhibitory effect on ARE-luciferase activity” value [1, 8] was “concentration-dependent inhibitory effect”.
